Consider one molecule from ChEMBL document CHEMBL5154884, “Discovery of a Novel Src Homology-2 Domain Containing Protein Tyrosine Phosphatase-2 (SHP2) and Cyclin-Dependent Kinase 4 (CDK4) Dual Inhibitor for the Treatment of Triple-Negative Breast Cancer” (J Med Chem, 2022).

The structures appear in SMILES notation. Activity calls are given as the source filed them. The calls are words filed in the database; no cut-off is given here.

The target in data set [1] is Cyclin-dependent kinase 5/CDK5 activator 1 (Homo sapiens, UniProt Q00535). As to the kind of experiment: Inhibition of recombinant full length N-terminal GST/His6-fusion tagged human CDK5/P25 expressed in Sf9 insect cells incubated for 20 mins followed by [33P]gamma-ATP addition and measured after 2 hrs by radiometric HotSpot Kinase assay.
For data set [2], the target named is T1, Tyrosine-protein phosphatase non-receptor type 11 (Homo sapiens, UniProt Q06124).
T1 sequence (Q06124 whole entry): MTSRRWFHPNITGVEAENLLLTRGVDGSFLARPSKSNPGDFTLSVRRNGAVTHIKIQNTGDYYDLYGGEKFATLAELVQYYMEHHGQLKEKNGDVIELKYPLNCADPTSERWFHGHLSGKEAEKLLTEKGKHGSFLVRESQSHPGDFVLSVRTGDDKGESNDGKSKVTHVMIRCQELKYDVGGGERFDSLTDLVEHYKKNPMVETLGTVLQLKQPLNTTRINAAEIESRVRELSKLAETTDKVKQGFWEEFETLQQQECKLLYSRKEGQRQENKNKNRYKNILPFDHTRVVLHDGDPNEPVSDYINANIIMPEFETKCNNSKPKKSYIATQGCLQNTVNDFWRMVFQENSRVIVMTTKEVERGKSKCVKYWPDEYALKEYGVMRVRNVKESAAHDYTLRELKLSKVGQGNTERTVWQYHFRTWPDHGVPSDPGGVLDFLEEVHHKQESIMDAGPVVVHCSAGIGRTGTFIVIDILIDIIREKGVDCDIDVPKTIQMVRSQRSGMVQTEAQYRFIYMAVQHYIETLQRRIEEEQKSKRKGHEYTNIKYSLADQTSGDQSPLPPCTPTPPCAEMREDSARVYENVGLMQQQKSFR
As to the kind of experiment: Inhibition of SHP2 PTP domain (unknown origin) using DiFMUP as substrate preincubated for 20 mins followed by substrate addition and measured for 2 hrs by fluorescence based analysis.

The subject of data set [3] is MDA-MB-231. As to the kind of experiment: Induction of cell cycle arrest in human MDA-MB-231 cells assessed as accumulation of cells in G0/G1 phase at 3 uM incubated for 48 hrs by RNase/propidium iodide staining based flow cytometry analysis (reference value: 26.2%). Type of data set: functional. For orientation: A flow cytometer gives signals particle by particle.

The target of another data set is CDK6/cyclin D3 (Homo sapiens, UniProt Q00534). In words: Inhibition of recombinant N-terminal GST/His6-fusion tagged human CDK6/Cyclin D3 expressed in Sf9 insect cells incubated for 20 mins followed by [33P]gamma-ATP addition and measured after 2 hrs by radiometric HotSpot Kinase assay.
The subject of data set [4] is EMT6. As to the kind of experiment: Antitumor activity against mouse EMT6 cells implanted in BALB/c mouse syngenic model assessed as downregulation of p-retinoblastoma level in tumor at 20 mg/kg, po bid measured after 18 days by immunohistochemical analysis. Type of data set: functional, organism-based. The note with it: time 18.0 day.
The subject of data set [5] is MDA-MB-231. In words: Upregulation of p-STAT3 protein expression in human MDA-MB-231 cells at 0.25 to 20 uM measured after 72 hrs by Western blot analysis. It is filed as functional, cell-based. The note with it: dose 0.25-20 µM.
Data set [6] relates to MDA-MB-231. As to the kind of experiment: Induction of apoptosis in human MDA-MB-231 cells assessed as viable cells at 1 uM measured after 48 hrs by Annexin V-FITC/PI staining based flow cytometric analysis (reference value: 98.04%). It is filed as functional. The note with it: read-out: Activity.
The subject of data set [7] is EMT6. In words: Antitumor activity against mouse EMT6 cells implanted in BALB/c mouse syngenic model assessed as downregulation of pERK level in tumor at 20 to 40 mg/kg, po qd measured after 18 days by immunohistochemical analysis. It is filed as functional, organism-based. Particulars: dose 20-40 mg/kg, time 18.0 day.
Data set [8] in a line: Cmax in ICR mouse at 1 mg/kg, iv measured upto 24 hrs by LC-MS/MS analysis. Type of data set: ADME, organism-based. Particulars: in vivo. More on the design: time < 24 hrs, dose 1 mg/kg, route iv.
A further data set deals with CDK2/Cyclin-E2 (Homo sapiens, UniProt O96020+P24941). As to the kind of experiment: Inhibition of recombinant N-terminal GST/His6-fusion tagged human CDK2/Cyclin E2 expressed in Sf9 insect cells incubated for 20 mins followed by [33P]gamma-ATP addition and measured after 2 hrs by radiometric HotSpot Kinase assay.
Data set [9] concerns the target T2, Tyrosine-protein phosphatase non-receptor type 11 (Homo sapiens) (UniProt Q06124).
T2 sequence (whole entry): T1 sequence (Q06124 whole entry)
As to the kind of experiment: Inhibition of SHP2 downstream signalling in human MDA-MB-231 cells assessed as decrease in pERK1/2 protein level measured after 72 hrs by Western blot analysis. Type of data set: cell-based. Particulars: dose 1.25-20 µM, DDE = dose-dependent effect. Background: In western blotting, separated proteins are transferred to a membrane and probed.

The subject of data set [10] is MDA-MB-231. As to the kind of experiment: Induction of apoptosis in human MDA-MB-231 cells assessed as necrotic cells at 1 uM measured after 48 hrs by Annexin V-FITC/PI staining based flow cytometric analysis (reference value: 0.58%). Type of data set: functional.
Data set [11] addresses Tyrosine-protein phosphatase non-receptor type 6 (Homo sapiens, UniProt P29350). In words: Inhibition of SHP1 (unknown origin) using DiFMUP as substrate preincubated for 20 mins followed by substrate addition and measured for 2 hrs by fluorescence based analysis.
Data set [12] concerns MDA-MB-231. As to the kind of experiment: Antiproliferative activity against human MDA-MB-231 cells assessed as inhibition of cell growth incubated for 48 hrs by MTT assay. The note with it: Homo sapiens, MDA-MB-231, 48 h. It is filed as functional, cell-based. For orientation: Tetrazolium dyes change colour on reduction, which living cells bring about.
The target of data set [13] is Cyclin-dependent kinase 7/ cyclin H (Homo sapiens, UniProt P50613). As to the kind of experiment: Inhibition of CDK7/Cyclin H (unknown origin) incubated for 20 mins followed by [33P]gamma-ATP addition and measured after 2 hrs by radiometric HotSpot Kinase assay. It is filed as protein-complex assay.
A short description of data set [14]: Terminal half life in ICR mouse at 10 mg/kg, po measured upto 24 hrs by LC-MS/MS analysis. It is filed as ADME, organism-based. The note with it: in vivo, read-out: beta t1/2 (converted).
The subject of data set [15] is EMT6. As to the kind of experiment: Antitumor activity against mouse EMT6 cells implanted in BALB/c mouse syngenic model assessed as tumor growth inhibition at 40 mg/kg, po qd and measured after 18 days relative to control. Type of data set: functional. Particulars: EMT6, 432 h, time 18 day, read-out: TGI.
A further data set concerns the target CDK12/Cyclin K (Homo sapiens, UniProt Q9NYV4). In words: Inhibition of recombinant N-terminal GST/His6-fusion tagged human CDK12/Cyclin K expressed in Sf9 insect cells incubated for 20 mins followed by [33P]gamma-ATP addition and measured after 2 hrs by radiometric HotSpot Kinase assay.
Data set [16] is described as follows: Inhibition of recombinant full length N-terminal GST/His6-fusion tagged human CDK9/Cyclin T1 expressed in Sf9 insect cells incubated for 20 mins followed by [33P]gamma-ATP addition and measured after 2 hrs by radiometric HotSpot Kinase assay.
The subject of data set [17] is EMT6. In words: Antiproliferative activity against mouse EMT6 cells assessed as inhibition of cell growth incubated for 48 hrs by MTT assay. The note with it: Mus musculus, EMT6, 48 h. Type of data set: functional, cell-based.
Data set [18] deals with MDA-MB-231. In words: Induction of apoptosis in human MDA-MB-231 cells assessed as necrotic cells at 3 uM measured after 48 hrs by Annexin V-FITC/PI staining based flow cytometric analysis (reference value: 0.58%). Type of data set: functional.
Data set [19] relates to MDA-MB-231. As to the kind of experiment: Induction of cell cycle arrest in human MDA-MB-231 cells assessed as accumulation of cells in S phase at 3 uM incubated for 48 hrs by RNase/propidium iodide staining based flow cytometry analysis (reference value: […]). Type of data set: functional.
Data set [20] has as its system EMT6. In words: Antitumor activity against mouse EMT6 cells implanted in BALB/c mouse syngenic model assessed as tumor growth inhibition at 20 mg/kg, po bid and measured after 18 days relative to control. It is filed as functional. The note with it: EMT6, 432 h, time 18 day, read-out: TGI.

Chain of Cyclin-dependent kinase 5/CDK5 activator 1 (Q00535 whole entry, the tested form may be a part): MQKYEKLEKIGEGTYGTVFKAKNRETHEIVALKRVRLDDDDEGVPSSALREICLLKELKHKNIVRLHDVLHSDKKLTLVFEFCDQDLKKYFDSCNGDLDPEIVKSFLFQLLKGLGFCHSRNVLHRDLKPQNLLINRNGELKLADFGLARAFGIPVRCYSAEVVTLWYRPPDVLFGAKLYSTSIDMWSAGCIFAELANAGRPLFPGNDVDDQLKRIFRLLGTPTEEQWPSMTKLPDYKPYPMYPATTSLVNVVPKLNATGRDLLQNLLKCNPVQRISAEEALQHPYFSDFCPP
Chain of Cyclin-dependent kinase 5/CDK5 activator 1 (Q15078 whole entry, further chain, the tested form may be a part): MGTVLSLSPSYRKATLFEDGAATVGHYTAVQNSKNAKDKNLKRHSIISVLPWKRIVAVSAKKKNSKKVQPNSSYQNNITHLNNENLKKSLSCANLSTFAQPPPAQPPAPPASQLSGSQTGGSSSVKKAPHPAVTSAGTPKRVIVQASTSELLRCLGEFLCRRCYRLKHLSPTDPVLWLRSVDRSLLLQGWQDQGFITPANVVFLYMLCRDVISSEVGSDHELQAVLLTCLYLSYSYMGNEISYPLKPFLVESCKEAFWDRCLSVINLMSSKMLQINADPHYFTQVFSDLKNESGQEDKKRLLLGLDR
Chain of CDK12/Cyclin K (O75909 whole entry, the tested form may be a part): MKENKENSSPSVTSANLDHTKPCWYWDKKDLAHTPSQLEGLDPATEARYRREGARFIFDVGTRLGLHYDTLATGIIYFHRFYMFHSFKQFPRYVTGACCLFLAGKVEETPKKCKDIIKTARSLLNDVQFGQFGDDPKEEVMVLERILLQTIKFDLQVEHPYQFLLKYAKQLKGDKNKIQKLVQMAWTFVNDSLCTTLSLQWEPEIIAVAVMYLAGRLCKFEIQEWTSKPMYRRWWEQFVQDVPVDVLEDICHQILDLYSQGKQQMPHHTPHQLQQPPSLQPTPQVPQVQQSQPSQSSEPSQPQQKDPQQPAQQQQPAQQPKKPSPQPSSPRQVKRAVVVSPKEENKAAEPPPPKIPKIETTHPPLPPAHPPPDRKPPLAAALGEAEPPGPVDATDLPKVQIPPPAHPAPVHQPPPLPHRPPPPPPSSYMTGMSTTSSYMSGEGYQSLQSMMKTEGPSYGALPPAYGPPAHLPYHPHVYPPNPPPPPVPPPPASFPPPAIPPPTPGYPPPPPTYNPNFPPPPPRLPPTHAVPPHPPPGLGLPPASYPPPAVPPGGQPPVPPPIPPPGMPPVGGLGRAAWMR
Chain of CDK12/Cyclin K (Q9NYV4 whole entry, the tested form may be a part): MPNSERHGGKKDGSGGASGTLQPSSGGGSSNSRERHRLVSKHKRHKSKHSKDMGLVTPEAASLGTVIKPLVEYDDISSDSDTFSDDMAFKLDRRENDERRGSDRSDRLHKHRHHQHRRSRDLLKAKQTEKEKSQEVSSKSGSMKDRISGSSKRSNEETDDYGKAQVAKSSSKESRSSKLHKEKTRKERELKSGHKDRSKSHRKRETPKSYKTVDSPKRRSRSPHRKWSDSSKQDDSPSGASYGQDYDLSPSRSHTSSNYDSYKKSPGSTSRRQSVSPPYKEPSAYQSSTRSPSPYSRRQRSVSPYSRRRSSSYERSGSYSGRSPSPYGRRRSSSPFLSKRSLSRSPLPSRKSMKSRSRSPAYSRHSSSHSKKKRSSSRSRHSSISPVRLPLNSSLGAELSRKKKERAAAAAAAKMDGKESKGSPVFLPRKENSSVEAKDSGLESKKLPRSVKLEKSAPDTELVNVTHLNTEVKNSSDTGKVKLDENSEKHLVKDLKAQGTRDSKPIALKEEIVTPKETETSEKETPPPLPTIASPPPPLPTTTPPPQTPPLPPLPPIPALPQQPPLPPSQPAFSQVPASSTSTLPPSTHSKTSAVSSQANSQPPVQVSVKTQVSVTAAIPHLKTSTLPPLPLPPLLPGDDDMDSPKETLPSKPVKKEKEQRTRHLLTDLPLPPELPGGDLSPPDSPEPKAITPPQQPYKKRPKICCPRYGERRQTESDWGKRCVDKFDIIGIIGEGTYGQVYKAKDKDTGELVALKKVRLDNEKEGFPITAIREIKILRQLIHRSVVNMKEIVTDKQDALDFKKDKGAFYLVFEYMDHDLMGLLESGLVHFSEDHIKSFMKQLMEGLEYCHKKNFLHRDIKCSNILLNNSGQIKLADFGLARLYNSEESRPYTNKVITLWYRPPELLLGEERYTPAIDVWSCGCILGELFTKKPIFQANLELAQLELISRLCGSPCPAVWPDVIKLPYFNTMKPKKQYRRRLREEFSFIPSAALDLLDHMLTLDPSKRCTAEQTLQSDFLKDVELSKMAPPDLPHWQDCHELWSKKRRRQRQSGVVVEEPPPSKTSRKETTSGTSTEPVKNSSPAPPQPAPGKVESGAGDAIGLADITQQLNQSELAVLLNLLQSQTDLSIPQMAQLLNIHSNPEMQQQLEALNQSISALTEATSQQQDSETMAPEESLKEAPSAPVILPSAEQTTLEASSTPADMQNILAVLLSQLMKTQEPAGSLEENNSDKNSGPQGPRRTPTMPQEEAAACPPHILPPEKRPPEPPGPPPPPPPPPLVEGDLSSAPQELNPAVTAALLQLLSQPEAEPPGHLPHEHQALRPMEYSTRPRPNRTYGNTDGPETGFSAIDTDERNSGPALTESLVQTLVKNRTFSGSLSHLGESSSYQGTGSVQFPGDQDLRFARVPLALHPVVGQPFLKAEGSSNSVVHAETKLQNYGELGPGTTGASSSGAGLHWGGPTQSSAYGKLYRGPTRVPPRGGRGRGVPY
Chain of Cyclin-dependent kinase 7/ cyclin H (P51946 whole entry): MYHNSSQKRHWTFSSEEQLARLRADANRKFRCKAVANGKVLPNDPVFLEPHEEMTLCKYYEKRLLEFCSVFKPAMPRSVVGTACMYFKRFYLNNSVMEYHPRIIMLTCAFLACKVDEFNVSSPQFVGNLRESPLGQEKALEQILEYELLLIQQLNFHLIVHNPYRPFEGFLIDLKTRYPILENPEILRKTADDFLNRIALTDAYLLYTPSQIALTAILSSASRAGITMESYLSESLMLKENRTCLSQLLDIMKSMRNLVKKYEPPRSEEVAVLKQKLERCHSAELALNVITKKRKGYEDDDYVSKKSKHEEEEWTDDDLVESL
Chain of Cyclin-dependent kinase 7/ cyclin H (P50613 whole entry): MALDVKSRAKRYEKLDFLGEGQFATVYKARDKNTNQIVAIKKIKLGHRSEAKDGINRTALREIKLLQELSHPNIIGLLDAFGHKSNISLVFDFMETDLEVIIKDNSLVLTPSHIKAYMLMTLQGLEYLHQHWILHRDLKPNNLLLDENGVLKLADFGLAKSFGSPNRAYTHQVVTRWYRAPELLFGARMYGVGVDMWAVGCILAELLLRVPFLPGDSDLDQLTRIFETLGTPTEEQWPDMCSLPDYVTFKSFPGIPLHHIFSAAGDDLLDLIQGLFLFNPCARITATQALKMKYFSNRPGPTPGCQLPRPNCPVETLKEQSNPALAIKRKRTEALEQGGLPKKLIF
Chain of Tyrosine-protein phosphatase non-receptor type 6 (P29350 whole entry): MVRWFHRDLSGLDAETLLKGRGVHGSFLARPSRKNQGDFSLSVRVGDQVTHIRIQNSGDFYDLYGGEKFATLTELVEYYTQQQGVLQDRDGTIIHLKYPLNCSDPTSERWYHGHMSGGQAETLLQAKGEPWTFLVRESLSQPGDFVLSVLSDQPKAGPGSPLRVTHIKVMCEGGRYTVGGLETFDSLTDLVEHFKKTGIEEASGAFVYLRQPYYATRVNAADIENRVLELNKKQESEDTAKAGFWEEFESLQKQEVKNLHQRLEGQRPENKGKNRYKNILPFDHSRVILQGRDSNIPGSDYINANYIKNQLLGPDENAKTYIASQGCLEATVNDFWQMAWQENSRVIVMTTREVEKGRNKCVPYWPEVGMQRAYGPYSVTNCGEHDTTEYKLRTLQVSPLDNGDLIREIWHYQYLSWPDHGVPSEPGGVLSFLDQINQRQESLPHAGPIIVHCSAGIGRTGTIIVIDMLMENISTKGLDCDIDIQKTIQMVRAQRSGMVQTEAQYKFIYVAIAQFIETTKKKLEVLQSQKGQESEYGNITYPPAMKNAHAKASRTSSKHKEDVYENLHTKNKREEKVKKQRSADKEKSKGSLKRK
Chain of CDK6/cyclin D3 (P30281 whole entry, the tested form may be a part): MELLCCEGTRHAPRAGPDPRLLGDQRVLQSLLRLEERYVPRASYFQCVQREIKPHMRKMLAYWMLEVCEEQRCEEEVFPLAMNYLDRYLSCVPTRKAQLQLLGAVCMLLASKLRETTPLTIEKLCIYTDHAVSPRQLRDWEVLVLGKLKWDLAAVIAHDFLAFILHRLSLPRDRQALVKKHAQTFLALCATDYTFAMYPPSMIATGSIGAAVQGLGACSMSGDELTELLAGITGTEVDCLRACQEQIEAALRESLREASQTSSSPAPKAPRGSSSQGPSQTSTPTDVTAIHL
Chain of CDK6/cyclin D3 (Q00534 whole entry, the tested form may be a part): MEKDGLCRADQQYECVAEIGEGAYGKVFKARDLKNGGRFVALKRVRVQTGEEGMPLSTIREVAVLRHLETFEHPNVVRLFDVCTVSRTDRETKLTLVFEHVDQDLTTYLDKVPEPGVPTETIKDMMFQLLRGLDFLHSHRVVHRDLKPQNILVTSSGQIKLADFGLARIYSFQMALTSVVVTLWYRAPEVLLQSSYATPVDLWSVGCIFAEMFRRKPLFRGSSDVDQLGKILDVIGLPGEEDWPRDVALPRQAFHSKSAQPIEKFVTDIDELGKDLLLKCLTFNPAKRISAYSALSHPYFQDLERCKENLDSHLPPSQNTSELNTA

A word on the IC50: it is the concentration at which inhibition is half-maximal. By Cmax is commonly meant the maximum level reached in the sampled fluid or tissue. Turning to `Cc1nc2c(F)cc(-c3nc(Nc4nccc(Sc5cnc(N6CCC7(CC6)CO[C@@H](C)[C@H]7N)cn5)c4Cl)ncc3F)cc2n1C(C)C`, the half-maximal inhibitory concentration (IC50) in data set [1] is 540 nM; in data set [2], above 20000 nM; on CDK6/cyclin D3, 634 nM; at CDK2/Cyclin-E2, 464 nM; in data set [11], above 20000 nM; with MDA-MB-231 [12], 5570 nM. The IC50 in data set [13] is 968 nM; on CDK12/Cyclin K, 697 nM; in [16], 26.4 nM; in the data set on EMT6 [17], 640 nM. For the same molecule, the Activity in the data set with MDA-MB-231 [3] came to 58.9%; in the data set on MDA-MB-231 [10], 1.16%; in the data set with MDA-MB-231 [18], 1.25%; with MDA-MB-231 [19], 39.6%. Moreover, the result in the data set with EMT6 [4], in the data set with MDA-MB-231 [5] and with EMT6 [7] was Active. Further, the viability at 1 µM in the data set on MDA-MB-231 [6] came to 86.3%. Further, the concentration in data set [8] peaked (Cmax) at 383 ng/mL. The inhibition result in [9] was “Dde”. Moreover, in data set [14], the half-life is 2.94 h. Moreover, in the data set on EMT6 [15], the inhibition in vivo at 40 mg/kg was 80%. Moreover, the inhibition in vivo at 20 mg/kg in the data set with EMT6 [20] is 89%.
